Results as given in patent US5569658A, “Tricyclic derivatives” (Zeneca Limited, priority 1993, dated 1996).

Tests used:
liver hepatocyte = test: in vivo assay: inhibition of TGFα-stimulated liver hepatocyte growth in rats (Test (c)); parameters: species or system rat; details: TGFα 400 μg/kg subcutaneously; for ED50: Rattus norvegicus, Hepatocyte, male rats, usually oral, approximate ED50, read-out: ED50 in Test (c), inhibition of liver hepatocyte proliferation (BrdU uptake)
Method: (c) An in vivo assay in a group of male rats which determines the ability of a test compound (usually administered orally as a ball-milled suspension in 0.5% polysorbate) to inhibit the stimulation of liver hepatocyte growth caused by the administration of the growth factor TGFα (400 μg/kg subcutaneously, usually dosed twice, 3 and 7 hours respectively after the administration of the test compound).
In a control group of rats, the administration of TGFα causes on average a 5-fold stimulation of liver hepatocyte growth.
Cell-growth in the control and test animals is determined as follows:
On the morning of the day after the dosing of the test compound (or 0.5% polysorbate in the control group), the animals are dosed with bromodeoxyuridine (BrdU; 100 mg/kg intraperitoneally). The animals are killed four hours later and the livers are excised. […] Further tests were carried out using a range of doses of the test compounds to allow the calculation of an approximate ED50 value for the inhibition of liver hepatocyte proliferation as determined by inhibition of the uptake of BrdU.

receptor tyrosine kinase = target: T1, receptor tyrosine kinase (Homo sapiens, UniProt P00533); test: in vitro assay: inhibition of the enzyme receptor tyrosine kinase (Test (a)); assay type: biochemical; details: partially purified enzyme from A-431 cells; EGF; peptide substrate, [γ-32P]ATP; 25° C., 10 minutes
T1 construct: Receptor tyrosine kinase was obtained in partially purified form from A-431 cells; endogenous in cells; host or cells: A-431 cells (human vulval carcinoma); partially purified, Triton X-100 solubilised membrane fraction
T1 sequence (P00533 25-1210): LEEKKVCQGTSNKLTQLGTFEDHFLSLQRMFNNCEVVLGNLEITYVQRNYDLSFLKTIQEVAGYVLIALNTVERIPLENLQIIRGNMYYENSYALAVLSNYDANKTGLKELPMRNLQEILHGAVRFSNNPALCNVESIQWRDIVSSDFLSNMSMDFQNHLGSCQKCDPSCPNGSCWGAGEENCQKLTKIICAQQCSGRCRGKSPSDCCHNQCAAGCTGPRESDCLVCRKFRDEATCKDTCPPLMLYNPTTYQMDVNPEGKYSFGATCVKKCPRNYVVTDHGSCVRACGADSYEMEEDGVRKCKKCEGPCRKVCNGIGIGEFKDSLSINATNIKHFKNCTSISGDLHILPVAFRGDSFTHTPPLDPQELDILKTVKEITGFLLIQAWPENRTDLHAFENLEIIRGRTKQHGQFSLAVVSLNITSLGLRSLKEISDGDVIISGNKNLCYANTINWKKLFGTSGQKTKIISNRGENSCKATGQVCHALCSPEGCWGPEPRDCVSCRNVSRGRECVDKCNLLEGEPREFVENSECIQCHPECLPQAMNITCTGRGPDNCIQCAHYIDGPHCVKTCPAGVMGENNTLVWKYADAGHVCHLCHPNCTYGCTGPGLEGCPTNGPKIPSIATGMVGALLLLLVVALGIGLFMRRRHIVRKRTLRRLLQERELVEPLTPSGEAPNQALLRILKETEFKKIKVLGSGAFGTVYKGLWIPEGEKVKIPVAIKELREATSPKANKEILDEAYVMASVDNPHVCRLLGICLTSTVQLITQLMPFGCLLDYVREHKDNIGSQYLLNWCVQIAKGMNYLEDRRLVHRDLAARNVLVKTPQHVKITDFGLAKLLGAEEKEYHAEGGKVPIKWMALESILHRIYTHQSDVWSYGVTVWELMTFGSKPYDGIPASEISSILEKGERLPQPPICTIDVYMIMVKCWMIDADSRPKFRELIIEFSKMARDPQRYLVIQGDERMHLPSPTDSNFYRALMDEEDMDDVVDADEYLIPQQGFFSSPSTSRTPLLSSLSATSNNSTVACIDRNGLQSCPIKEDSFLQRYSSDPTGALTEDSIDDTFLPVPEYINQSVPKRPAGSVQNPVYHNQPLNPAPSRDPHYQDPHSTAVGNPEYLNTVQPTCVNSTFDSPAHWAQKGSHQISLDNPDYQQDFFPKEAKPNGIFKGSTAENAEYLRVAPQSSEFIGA
Method: (a) An in vitro assay which determines the ability of a test compound to inhibit the enzyme receptor tyrosine kinase. Receptor tyrosine kinase was obtained in partially purified form from A-431 cells (derived from human vulval carcinoma) by procedures related to those described by Carpenter et al., J. Biol. Chem., 1979, 254, 4884, Cohen et al., J. Biol. Chem., 1982, 257, 1523 and by Braun et al., J. Biol. Chem., 1984, 259, 2051.
A-431 cells were grown to confluence using Dulbecco's modified Eagle's medium (DMEM) containing 5% fetal calf serum (FCS). The obtained cells were homogenised in a hypotonic borate/EDTA buffer at pH 10.1. The homogenate was centrifuged at 400 g for 10 minutes at 0°-4° C. The supernatant was centrifuged at 25,000 g for 30 minutes at 0°-4° C. […]
The test compound/EGF mixture solution (5 μl) was added to the test enzyme solution (10 μl) and the mixture was incubated at 0°-4° C. for 30 minutes. […] Radioactivity present in the filter paper was measured using a liquid scintillation counter (Sequence A). […]
Receptor tyrosine kinase inhibition was calculated as follows: [formula]
The extent of inhibition was then determined at a range of concentrations of test compound to give an IC50 value.

[1] = tested on: human naso-pharyngeal cancer cell line KB; test: in vitro assay: inhibition of growth of the human naso-pharyngeal cancer cell line KB (Test (b)); assay type: cell-based; details: 72 h, EGF (10 ng/ml), 3 days, MTT
Method: (b) An in vitro assay which determines the ability of a test compound to inhibit the growth of the human naso-pharyngeal cancer cell line KB.
KB cells were seeded into wells at a density of 1×10^4 -1.5×10^4 cells per well and grown for 24 hours in DMEM supplemented with 5% FCS (charcoal-stripped). Cell growth was determined after incubation for 3 days by the extent of metabolism of MTT tetrazolium dye to furnish a bluish color. Cell growth was then determined in the presence of EGF (10 ng/ml) or in the presence of EGF (10 ng/ml) and a test compound at a range of concentrations. An IC50 value could then be calculated.

[2] = tested on: another carcinoma which does not express EGF receptor tyrosine kinase; details: Toi et al., 1990; cited from earlier work
[3] = tested on: human mammary carcinoma which expresses epidermal growth factor (EGF) receptor tyrosine kinase; details: athymic nude mice; Toi et al., 1990; cited from earlier work

| IC50 (receptor tyrosine kinase) [µM] | IC50 [1] [µM] | Compound | stimulation of liver hepatocyte growth (liver hepatocyte; control group of rats, on average) | ED50 (liver hepatocyte) [mg/kg] | effect on tumour growth, carcinoma not expressing EGF receptor tyrosine kinase [2] | effect on tumour growth, carcinoma expressing EGF receptor tyrosine kinase [3] |
| --- | --- | --- | --- | --- | --- | --- |
|  |  | TGFα: the growth factor TGFα | ~5 -fold |  |  |  |
| 0.016 | 1.19 | Cc1cccc(Nc2ncnc3cc4c(cc23)[nH]c(=O)n4C)c1 [3-methyl-8-(3'-methylanilino)-1,2-dihydro-3H-imidazo[4,5-g]quinazolin-2-one] |  | < 12.5 |  |  |
|  |  | O=CN/C=C/c1cc(O)ccc1O [erbstatin] |  |  | without effect | specifically attenuates the growth |
| 0.035 | 0.97 | Cc1cccc(Nc2ncnc3cc4c(cc23)ncn4C)c1 [3-methyl-8-(3'-methylanilino)-3H-imidazo[4,5-g]-quinazoline] |  | < 5 |  |  |
